Measured values taken from PMC8864869, “A short peptide derived from pigment epithelial-derived factor exhibits an angioinhibitory effect” (BMC Ophthalmology, 2022).
Values joined by “and” are separate entries in the source; they are usually repeats but may differ in a detail not shown here. Equal entries are not always repeated.

How the values were obtained:
[1] = tested on: rat aortic ring; test: Rat aortic ring assay; details: 100 μM 7-mer, 5 days
Method: Thoracic aortas were removed from euthanized 10-week-old male Sprague Dawley rats and gently stripped of periaortic fibroadipose tissue. Aortas were sectioned into ~ 1 mm length rings, being manipulated in Medium 200. Matrigel (120 μl) mixed with 24 μl LSGS, 72 μl medium, 200 ng/ml VEGF and 100 μM 7-mer was used to embed the aortic ring and then polymerized in 12-well plates (37 °C for 30 min). Subsequently, 1 ml culture medium supplemented with 100 units/ml penicillin, and […] was added. The cultures were propagated at 37 °C in a humidified incubator for up to 5 days. Sprouts were recorded using an inverted microscope platform (Leica DMI6000B) with bright-field optics. Each ring was scored by three independent observers on a scale 0–3, depending on the degree of vessel sprouting observed (0 = no sprouting, 3 = profuse sprouting).
Fig. 6 The effect of the 7-mer on VEGF-induced microvessel sprouting of aortic ring and corneal neovascularization. a Rat aortic ring assay. Photomicrographs of aortic ring explants after treatment for 5 days (magnification × 40). Sprouting was evaluated on a scale from 0 (no sprouts) to 3 (profuse sprouting). There was no sprouting of vessels from ex vivo aortic rings embedded in Matrigel without LSGS or VEGF. b The 7-mer inhibits VEGF-induced corneal angiogenesis in C57BL/6 mice. […]

[2] = tested on: JNK; test: Western blot of phosphorylated JNK in RPMI8226 cells; assay type: cell-based, human; details: 10 ng/ml VEGF + 25 μM 7-mer
Source text: (§1) Cell lysis and SDS–PAGE were as described previously. Antibodies used in this study were for active p38 MAPK and active JNK (Promega, Madison, WI), p38 MAPK/SAPK2, JNK (Upstate Biotechnology, Lake Placid, NY), p53 (Chemicon, Temecula, CA), bax, p21, cleaved caspase-3 and β-actin (Abcam Ltd., Cambridge, UK). Proteins of interest were detected using the appropriate IgG-horseradish peroxidase-linked secondary antibody (Santa Cruz Biotechnology) and enhanced chemiluminescence reagent (Amersham, Arlington Heights, IL). X-ray films were scanned on a model GS-700 Imaging Densitometer (Bio-Rad, Hercules, CA) and analyzed with Labworks 4.0 software. For quantification, blots from at least three independent experiments were used.
Fig. 3 The 7-mer induces JNK signaling to trigger RPMI8226 cell apoptosis. 3 × 10^5 cells were serum starved for 24 h and then exposed to 10 ng/ml VEGF and 25 μM 7-mer for the indicated time periods. a Western blotting was performed to detect the active phosphorylated forms of JNK (p-JNK) and p38 MAPK (p-p38), shown in the upper panels. Antibodies were then stripped and the blots were re-incubated with anti-JNK and anti-p38 MAPK antibodies (lower panels), respectively, to detect the levels of total JNK and p38 MAPK. b Densitometric analyses from three independent experiments are shown. c Cell were pretreated with 10 μM SP600125 or SB203580 for 10 min and then treated as described above for 24 h and apoptosis was quantified using the annexin V-FITC apoptosis detection kit. *P < 0.0001 versus 7-mer-treated cells

[3] = tested on: RPMI8226 cells; assay type: cell-based, human
Method: Human multiple myeloma cells, RPMI8226 were purchased from Bioresource Collection and Research Center (Hsinchu, Taiwan). Cells were cultivated in RPMI1640 medium supplemented with 10% FBS, 50 μg/ml penicillin, 50 μg/ml streptomycin, and 2 mM L-glutamine at 37 °C in a 5% CO2 atmosphere. Cell viability was determined by an MTT assay. […] MTT stock solution added to medium alone was included as a negative control. Aliquots (450 μl) from each sample were transferred to a new well of a 48-well culture plate, 100 μl DMSO added with thorough mixing, and allowed to react at 37 °C for 20 min before reading the absorbance at 570 nm.

[4] = tested on: p38 MAPK; test: Western blot of phosphorylated p38 MAPK in RPMI8226 cells; assay type: cell-based, human; details: 10 ng/ml VEGF + 25 μM 7-mer, time course
Source text: as §1
Fig. 3 The 7-mer induces JNK signaling to trigger RPMI8226 cell apoptosis. […] Antibodies were then stripped and the blots were re-incubated with anti-JNK and anti-p38 MAPK antibodies (lower panels), respectively, to detect the levels of total JNK and p38 MAPK. b Densitometric analyses from three independent experiments are shown. c Cell were pretreated with 10 μM SP600125 or SB203580 for 10 min and then treated as described above for 24 h and apoptosis was quantified using the annexin V-FITC apoptosis detection kit. *P < 0.0001 versus 7-mer-treated cells

In the case of “7-mer: PEDF Asp64-Ser70, N-acetylated, C-amidated (Ac-DLYRVRS-NH2; UniProt P36955 64-70, looked up, fragment)”, the “VEGF-induced outgrowth of sprouts from aortic rings” value ([1]; 200 ng/ml VEGF, P = 0.001) was “this outgrowth was suppressed”, the “sprouts of aortic rings exposed to LSGS and VEGF” value ([1]; LSGS + 200 ng/ml VEGF) was “blocked by the 7-mer” and the “time for which JNK phosphorylation was sustained” value [2] was “up to 10 h”. For the same substance, the “time of peak p-p46 JNK” value [2] was 2 h, the “p-p46 JNK phosphorylation” value ([2]; time course) was “increase in p-p46 JNK was detected 20 min after 7-mer treatment” and the “cytotoxic effect on RPMI8226 cells in the absence of VEGF” value [3] was “neither peptide had a significant cytotoxic effect”. The “MTT value, VEGF-induced RPMI8226 cell proliferation, 1 μM peptide” value ([3]; 10 ng/ml VEGF + 1 μM peptide (lowest concentration), 24 h, mean ± SD) was 101 ± 1.2%, the “anti-VEGF activity of the 7-mer relative to the 34-mer (MTT)” value ([3]; 10 ng/ml VEGF + 25 μM peptide, 24 h) was ~ 1.5 fold and the “MTT value, VEGF-induced RPMI8226 cell proliferation” value ([3]; 10 ng/ml VEGF + 25 μM peptide, 24 h, serum-free medium, solvent-treated/untreated cells set as 100%, mean ± SD, three independent experiments) was 58 ± 4.1% and 57.3% and 54 ± 1.5%. The “dose dependence of cell viability of VEGF-treated RPMI8226 cells” value ([3]; 1, 5, 10 and 25 μM peptide with VEGF, MTT) was “decreased cell viability in a dose-dependent manner” and the “p38 MAPK phosphorylation” value [4] was “no significant effect on p38 MAPK phosphorylation”.
